Tested on: 958667-338-R-J2-PDC tumor spheroids viability
Assay: Anticancer human tumor 958667-338-R-J2-PDC patient-derived colon adenocarcinoma cell line growth inhibition [PI3K]
Conditions: spheroids with HUVEC and MSC; for IC50: curve of first compound; for viability, T/C: stronger effect = lower value
Procedure, shortened: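 Targeted small molecules plus PI3K inhibitors, half-log dose series from Cmax (default top 10 microM), were applied to heterotypic spheroids of cancer cells with HUVEC and MSCs. Viability indicated growth inhibition.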

[1] = second compound 0.0316 µM, first compound 0.0316 µM
[2] = second compound 0.0316 µM, first compound 0.1 µM
[3] = second compound 0.0316 µM, first compound 0.316 µM
[4] = second compound 0.0316 µM, first compound 1 µM
[5] = second compound 0.0316 µM, first compound 3.16 µM
[6] = second compound 0.0316 µM, first compound 10 µM
[7] = second compound 0.1 µM, first compound 0.0316 µM
[8] = second compound 0.1 µM, first compound 0.1 µM
[9] = second compound 0.1 µM, first compound 0.316 µM
[10] = second compound 0.1 µM, first compound 1 µM
[11] = second compound 0.1 µM, first compound 3.16 µM
[12] = second compound 0.1 µM, first compound 10 µM
[13] = second compound 0.316 µM, first compound 0.0316 µM
[14] = second compound 0.316 µM, first compound 0.1 µM
[15] = second compound 0.316 µM, first compound 0.316 µM
[16] = second compound 0.316 µM, first compound 1 µM
[17] = second compound 0.316 µM, first compound 3.16 µM
[18] = second compound 0.316 µM, first compound 10 µM
[19] = second compound 1 µM, first compound 0.0316 µM
[20] = second compound 1 µM, first compound 0.1 µM
[21] = second compound 1 µM, first compound 0.316 µM
[22] = second compound 1 µM, first compound 1 µM
[23] = second compound 1 µM, first compound 3.16 µM
[24] = second compound 1 µM, first compound 10 µM
[25] = second compound 0.00316 µM, first compound 0.0316 µM
[26] = second compound 0.00316 µM, first compound 0.1 µM
[27] = second compound 0.00316 µM, first compound 0.316 µM
[28] = second compound 0.00316 µM, first compound 1 µM
[29] = second compound 0.00316 µM, first compound 3.16 µM
[30] = second compound 0.00316 µM, first compound 10 µM
[31] = second compound 0.01 µM, first compound 0.0316 µM
[32] = second compound 0.01 µM, first compound 0.1 µM
[33] = second compound 0.01 µM, first compound 0.316 µM
[34] = second compound 0.01 µM, first compound 1 µM
[35] = second compound 0.01 µM, first compound 3.16 µM
[36] = second compound 0.01 µM, first compound 10 µM
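Note: spheroids exposed to compounds for seven days before readout.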

With `C=CC(=O)N1CCN(c2nc(=O)n(-c3c(C)ccnc3C(C)C)c3nc(-c4c(O)cccc4F)c(F)cc23)C(C)C1` (stereo unspecified) + CC(Nc1ncnc2nc[nH]c12)c1cc2cccc(Cl)c2c(=O)n1-c1ccccc1 the IC50 (second compound 0.0316 µM) was > 10 µM, the IC50 (second compound 0.1 µM) was > 10 µM and the IC50 (second compound 0.316 µM) was > 10 µM. For the same compound, the IC50 (second compound 1 µM) was > 10 µM, the IC50 (second compound 3.16 µM) was > 10 µM and the IC50 (second compound 10 µM) was > 10 µM. The viability, T/C [1] was 118%, the viability, T/C [2] was 117% and the viability, T/C [3] was 104%. The viability, T/C [4] was 109%, the viability, T/C [5] was 130% and the viability, T/C [6] was 127%. The viability, T/C [7] was 106%, the viability, T/C [8] was 118% and the viability, T/C [9] was 112%. The viability, T/C [10] was 104%, the viability, T/C [11] was 118% and the viability, T/C [12] was 98%. It also gave a viability, T/C [13] of 116%, a viability, T/C [14] of 90.8% and a viability, T/C [15] of 93.6%. It also gave a viability, T/C [16] of 149%, a viability, T/C [17] of 116% and a viability, T/C [18] of 96.8%. For the same compound, the viability, T/C [19] was 108%, the viability, T/C [20] was 106% and the viability, T/C [21] was 85.9%. It also gave a viability, T/C [22] of 96.5%, a viability, T/C [23] of 123% and a viability, T/C [24] of 120%. The viability, T/C (second compound 3.16 µM, first compound 0.0316 µM) was 89.8%, the viability, T/C (second compound 3.16 µM, first compound 0.1 µM) was 88.1% and the viability, T/C (second compound 3.16 µM, first compound 0.316 µM) was 99.9%. It also gave a viability, T/C (second compound 3.16 µM, first compound 1 µM) of 125%, a viability, T/C (second compound 3.16 µM, first compound 3.16 µM) of 112% and a viability, T/C (second compound 3.16 µM, first compound 10 µM) of 111%. For the same compound, the viability, T/C (second compound 10 µM, first compound 0.0316 µM) was 93.3%, the viability, T/C (second compound 10 µM, first compound 0.1 µM) was 90.3% and the viability, T/C (second compound 10 µM, first compound 0.316 µM) was 115%. The viability, T/C (second compound 10 µM, first compound 1 µM) was 104%, the viability, T/C (second compound 10 µM, first compound 3.16 µM) was 101% and the viability, T/C (second compound 10 µM, first compound 10 µM) was 105%.
With `CC1(C)CCC(CN2CCN(c3ccc(C(=O)NS(=O)(=O)c4ccc(NCC5CCOCC5)c([N+](=O)[O-])c4)c(Oc4cnc5[nH]ccc5c4)c3)CC2)=C(c2ccc(Cl)cc2)C1` + CC(Nc1ccc2c(c1)OCCn1cc(N3C(=O)OCC3C(F)F)nc1-2)C(N)=O the IC50 (second compound 0.00316 µM) was > 10 µM, the IC50 (second compound 0.01 µM) was 9.01 µM and the IC50 (second compound 0.0316 µM) was 7.32 µM. The IC50 (second compound 0.1 µM) was 6.41 µM, the IC50 (second compound 0.316 µM) was 4.7 µM and the IC50 (second compound 1 µM) was > 10 µM. It also gave a viability, T/C [25] of 92.8%, a viability, T/C [26] of 116% and a viability, T/C [27] of 95.6%. The viability, T/C [28] was 111%, the viability, T/C [29] was 102% and the viability, T/C [30] was 69.5%. The viability, T/C [31] was 91.6%, the viability, T/C [32] was 89.3% and the viability, T/C [33] was 91.2%. It also gave a viability, T/C [34] of 87.3%, a viability, T/C [35] of 86.3% and a viability, T/C [36] of 46.4%. For the same compound, the viability, T/C [1] was 84.2%, the viability, T/C [2] was 118% and the viability, T/C [3] was 86%. The viability, T/C [4] was 97.9%, the viability, T/C [5] was 86.9% and the viability, T/C [6] was 36.1%. For the same compound, the viability, T/C [7] was 72%, the viability, T/C [8] was 79.7% and the viability, T/C [9] was 74.3%. It also gave a viability, T/C [10] of 77.4%, a viability, T/C [11] of 96.6% and a viability, T/C [12] of 31%. It also gave a viability, T/C [13] of 71.7%, a viability, T/C [14] of 59.5% and a viability, T/C [15] of 67.5%. For the same compound, the viability, T/C [16] was 71.8%, the viability, T/C [17] was 70.1% and the viability, T/C [18] was 15.5%. It also gave a viability, T/C [19] of 49%, a viability, T/C [20] of 60.7% and a viability, T/C [21] of 63%. For the same compound, the viability, T/C [22] was 63.4%, the viability, T/C [23] was 60.7% and the viability, T/C [24] was 35.5%.
For `C#Cc1c(F)ccc2cc(O)cc(-c3ncc4c(N5CC6CCC(C5)N6)nc(OCC56CCCN5CC(F)C6)nc4c3F)c12` (stereo unspecified) + CC(Nc1ccc2c(c1)OCCn1cc(N3C(=O)OCC3C(F)F)nc1-2)C(N)=O, the IC50 (second compound 0.00316 µM) was > 10 µM, the IC50 (second compound 0.01 µM) was > 10 µM and the IC50 (second compound 0.0316 µM) was 8.56 µM. For the same compound, the IC50 (second compound 0.1 µM) was 6.62 µM, the IC50 (second compound 0.316 µM) was 3.47 µM and the IC50 (second compound 1 µM) was 1.4 µM. The viability, T/C [25] was 95.2%, the viability, T/C [26] was 97.9% and the viability, T/C [27] was 110%. The viability, T/C [28] was 90.9%, the viability, T/C [29] was 90.6% and the viability, T/C [30] was 60.7%. The viability, T/C [31] was 101%, the viability, T/C [32] was 120% and the viability, T/C [33] was 121%. It also gave a viability, T/C [34] of 97.3%, a viability, T/C [35] of 74.2% and a viability, T/C [36] of 74.2%. For the same compound, the viability, T/C [1] was 99.9%, the viability, T/C [2] was 109% and the viability, T/C [3] was 100%. The viability, T/C [4] was 118%, the viability, T/C [5] was 83.1% and the viability, T/C [6] was 44.8%. It also gave a viability, T/C [7] of 69.2%, a viability, T/C [8] of 81% and a viability, T/C [9] of 77.4%. The viability, T/C [10] was 84.1%, the viability, T/C [11] was 71.4% and the viability, T/C [12] was 37.2%. For the same compound, the viability, T/C [13] was 69.1%, the viability, T/C [14] was 62% and the viability, T/C [15] was 66.7%. For the same compound, the viability, T/C [16] was 85.6%, the viability, T/C [17] was 52.4% and the viability, T/C [18] was 22.5%. It also gave a viability, T/C [19] of 61%, a viability, T/C [20] of 64.4% and a viability, T/C [21] of 44.6%. The viability, T/C [22] was 57.2%, the viability, T/C [23] was 45% and the viability, T/C [24] was 25.6%.

From PubChem BioAssay AID1963963 (Molecular Pharmacology Branch, DTP, NCI, 2024)
